According to ChEMBL document CHEMBL5647685:
Active and inactive are the calls of the source. The calls are words filed in the database; no cut-off is given here.

Assays:
MSC [1] = experiment: Induction of osteoblast nodule formation in human MSC cultures assessed as mineral incorporation at 0.1 to 1 uM by blue incubated for 1 to 14 days calcein detection based fluorescent micrography; type: functional, cell-based; conditions: dose 0.1-1 µM, time 1-14 day
MSC [2] = experiment: Bone activity in human MSC cultures assessed as promotion of osteogenesis at 0.1 to 1 uM dosed on days 4 to 7 and measured on day 7 by alkaline phosphatase activity detection detection assay; type: functional; conditions: dose 0.1-1 µM, time 4.0 day
[3] = target: High affinity nerve growth factor receptor (Homo sapiens) (UniProt P04629); experiment: Inhibition of full-length C-terminal his-tagged human TRKA at 1 uM pre-incubated with enzyme for 1 h prior to the addition of 500 uM ATP relative to control
[4] = target: T1, Tyrosine-protein kinase JAK3 (Homo sapiens) (UniProt P52333); experiment: Inhibition of full-length C-terminal his-tagged human JAK3 at 1 uM pre-incubated with enzyme for 1 h prior to the addition of 500 uM ATP relative to control
T1 sequence (whole entry): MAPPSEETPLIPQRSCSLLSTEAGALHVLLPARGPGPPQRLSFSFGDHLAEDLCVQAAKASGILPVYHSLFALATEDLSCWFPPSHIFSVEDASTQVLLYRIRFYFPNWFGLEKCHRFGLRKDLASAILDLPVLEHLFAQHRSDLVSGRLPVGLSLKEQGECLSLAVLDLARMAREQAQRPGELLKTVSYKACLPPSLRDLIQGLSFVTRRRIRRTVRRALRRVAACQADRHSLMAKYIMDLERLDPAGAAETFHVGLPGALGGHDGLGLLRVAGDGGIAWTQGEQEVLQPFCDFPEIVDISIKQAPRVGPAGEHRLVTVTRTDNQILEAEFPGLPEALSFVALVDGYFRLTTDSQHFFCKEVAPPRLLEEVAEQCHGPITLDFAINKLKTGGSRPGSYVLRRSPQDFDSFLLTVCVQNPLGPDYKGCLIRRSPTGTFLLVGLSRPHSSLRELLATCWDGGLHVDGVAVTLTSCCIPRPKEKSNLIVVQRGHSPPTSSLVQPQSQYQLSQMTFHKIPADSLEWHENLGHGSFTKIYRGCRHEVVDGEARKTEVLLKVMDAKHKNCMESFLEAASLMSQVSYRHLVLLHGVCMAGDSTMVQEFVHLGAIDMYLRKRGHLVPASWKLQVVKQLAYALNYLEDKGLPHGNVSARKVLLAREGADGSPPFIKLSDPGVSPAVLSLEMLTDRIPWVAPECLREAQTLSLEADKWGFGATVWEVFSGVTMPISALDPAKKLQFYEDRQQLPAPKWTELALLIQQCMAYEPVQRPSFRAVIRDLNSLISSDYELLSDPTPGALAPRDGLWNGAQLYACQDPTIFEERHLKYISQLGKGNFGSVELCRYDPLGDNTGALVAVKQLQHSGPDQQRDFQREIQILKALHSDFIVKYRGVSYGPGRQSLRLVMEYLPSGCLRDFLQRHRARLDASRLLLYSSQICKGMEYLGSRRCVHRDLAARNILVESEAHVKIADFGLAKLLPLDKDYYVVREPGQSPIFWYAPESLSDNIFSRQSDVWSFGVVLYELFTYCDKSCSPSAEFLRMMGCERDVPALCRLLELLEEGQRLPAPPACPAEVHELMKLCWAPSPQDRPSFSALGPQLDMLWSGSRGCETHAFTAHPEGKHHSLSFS

[5] = target: T2, Aurora kinase A (Homo sapiens) (UniProt O14965); experiment: Inhibition of full-length C-terminal his-tagged human AUR2 at 1 uM pre-incubated with enzyme for 1 h prior to the addition of 500 uM ATP relative to control
T2 sequence (whole entry): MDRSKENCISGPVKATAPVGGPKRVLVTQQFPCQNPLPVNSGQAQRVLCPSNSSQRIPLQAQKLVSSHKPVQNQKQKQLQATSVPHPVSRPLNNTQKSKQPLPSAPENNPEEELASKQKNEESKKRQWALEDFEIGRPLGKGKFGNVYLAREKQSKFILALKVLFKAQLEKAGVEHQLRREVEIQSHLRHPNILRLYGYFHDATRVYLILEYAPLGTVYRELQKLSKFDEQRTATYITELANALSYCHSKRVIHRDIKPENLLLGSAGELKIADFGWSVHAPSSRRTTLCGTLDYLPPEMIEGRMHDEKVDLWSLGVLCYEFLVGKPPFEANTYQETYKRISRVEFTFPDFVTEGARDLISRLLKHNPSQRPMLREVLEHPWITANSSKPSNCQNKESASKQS

MSC [6] = experiment: Bone activity in human MSC cultures assessed as promotion of osteogenesis at 0.1 to 1 uM dosed on days 1 to 7 and measured on day 7 by alkaline phosphatase activity detection detection assay; type: functional; conditions: dose 0.1-1 µM, time 7.0 day

Sequence of High affinity nerve growth factor receptor (Homo sapiens) (P04629 33-796 limits assumed): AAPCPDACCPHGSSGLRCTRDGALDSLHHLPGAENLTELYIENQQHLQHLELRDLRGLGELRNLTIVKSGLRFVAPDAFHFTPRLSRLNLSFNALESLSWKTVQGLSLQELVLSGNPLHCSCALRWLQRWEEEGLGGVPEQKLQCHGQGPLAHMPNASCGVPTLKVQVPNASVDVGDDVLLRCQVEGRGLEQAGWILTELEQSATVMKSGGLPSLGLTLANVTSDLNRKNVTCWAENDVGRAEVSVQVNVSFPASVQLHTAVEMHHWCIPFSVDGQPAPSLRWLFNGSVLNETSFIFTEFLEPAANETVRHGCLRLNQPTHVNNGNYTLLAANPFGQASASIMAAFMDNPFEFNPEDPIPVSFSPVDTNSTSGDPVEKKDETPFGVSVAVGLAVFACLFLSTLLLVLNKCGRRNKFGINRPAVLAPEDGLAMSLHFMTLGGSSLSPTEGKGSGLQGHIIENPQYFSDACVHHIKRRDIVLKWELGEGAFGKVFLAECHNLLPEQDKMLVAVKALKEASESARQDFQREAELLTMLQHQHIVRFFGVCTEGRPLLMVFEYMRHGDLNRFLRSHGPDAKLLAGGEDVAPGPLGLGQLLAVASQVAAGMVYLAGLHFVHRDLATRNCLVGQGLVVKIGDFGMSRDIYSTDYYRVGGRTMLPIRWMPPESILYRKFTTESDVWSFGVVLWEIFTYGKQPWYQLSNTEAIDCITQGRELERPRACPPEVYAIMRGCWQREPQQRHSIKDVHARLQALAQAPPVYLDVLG

Structure (SMILES)	Activity (MSC [1])	Activity (MSC [2])	inhibition [3]	inhibition [4]	inhibition [5]	Activity (MSC [6])
CN(c1ccccc1CNc1nc(Nc2ccc3c(c2)CC(=O)N3)ncc1C(F)(F)F)S(C)(=O)=O	inactive	Active	> 90%	> 90%	> 90%	–
Cc1ccc(-n2nc(C(C)(C)C)cc2NC(=O)Nc2cc(COc3cccnc3)n[nH]2)cc1	Active	–	–	–	–	Dose-Dependent Effect
